In paper PMC5759193, “The tankyrase inhibitor G007-LK inhibits small intestine LGR5^+ stem cell proliferation without altering tissue morphology” (Biological Research, 2018):
Several values for one entry are separate records, joined by “and”; a condition that tells them apart may be missing. Equal values may be shown once. Read-outs that look alike come from different tables or passages of the source.

Experiments:
[1] = cited from earlier work
duodenum = experiment: Duodenal morphology and cellular composition (H&E, PAS, Alcian blue, Lysozyme, Chromogranin A); type: in vivo, mice
Experimental: (§1) Mouse tissue was fixed overnight in 4% PFA, routinely processed and paraffin embedded. The paraffin-embedded tissue was sectioned at 3–4.5 μm. IHC staining was performed as previously described, with primary antibodies against β-catenin, green fluorescent protein (GFP), Lysozyme and Chromogranin A (rabbit monoclonal anti-β-catenin, Abcam ab32572; rabbit monoclonal anti-GFP, Cell Signaling Technology #2956; rabbit monoclonal anti-Lysozyme, Abcam ab108508; rabbit polyclonal anti-Chromogranin A, Abcam ab15160). For quantitative analyses of the IHC-stained tissue sections, the slides were scanned using the Hamamatsu Digital Slide Scanner NanoZoomer 2.0-HT C9600-13 and the number of positive and negative cells in up to 10 crypts or villi from each animal was counted manually. Periodic acid-Schiff (PAS) and Alcian blue staining was performed at the Department of Pathology, Oslo University Hospital, using standard protocols.
Similar data for the goblet cells were obtained by Alcian blue staining of acidic mucin (Additional file 5: Figure S4A–C).

[2] = test system: LGR5^+ intestinal stem cells; experiment: Lineage tracing from LGR5^+ intestinal stem cells in duodenum (confocal microscopy, GFP IHC)
Experimental: Pieces of duodenum from mice that had undergone induced lineage tracing were fixed for 30 min in 4% paraformaldehyde (PFA) at room temperature, rinsed in PBS and immediately prepared for confocal microscopic analyses. Under a stereo microscope one row of intestinal villi was sectioned from the duodenal wall with a scalpel, rinsed in dH2O and embedded in Mowiol 4-88 (Sigma-Aldrich). The samples were examined with a Zeiss LSM 780 confocal microscope (Carl Zeiss MicroImaging GmbH) equipped with a multiline argon laser (458/488/514 nm), a 10 mW DPSS laser (561 nm), a 405-30 CW laser diode (405 nm), and a helium–neon (HeNe) laser (633 nm). The objective used was a Zeiss Plan-Apochromat 20×/0.8 DIC II. To calculate the numbers and volumes of the traced cells, confocal Z-stacks were analysed with Imaris 7.7.2 (Bitplane AG). A similar threshold for the segmentation of the traced cells was used in all Z-stacks examined. Image visualisations were performed with the basic Zeiss LSM 780 ZEN 2010 software, Photoshop CS4 (Adobe), and Imaris 7.7.2.
as §1

duodenal crypt cells = experiment: BrdU labelling of duodenal crypt cells; type: in vivo, mice; conditions: 100 mg/kg chow
Experimental: Slides with tissue sections were deparaffinised in xylene and re-hydrated through a graded series of ethanol. Heat-antigen retrieval was performed in 10 mM sodium-citrate buffer supplemented with 0.05% Tween 20 in a pressure cooker for 3 min and the slides were slowly cooled down. Slides were rinsed in washing buffer (PBS supplemented with 0.1% Tween), incubated with blocking buffer (PBS supplemented with 5% goat serum and 5% bovine serum albumin (BSA)) for 30 min at room temperature and rinsed in washing buffer. Primary antibodies (mouse monoclonal anti-BrdU, ThermoFisher #B35128; monoclonal anti-GFP, Cell Signalling #2956) diluted in blocking buffer were applied and incubated over night at 4 °C. […]
Mice were treated with BrdU (100 mg/kg body mass) 1 h before being sacrificed or with daily 1 mg BrdU injections for 7 days prior to sacrifice. […] BrdU-labelled cells were detected using a BrdU IHC kit (Abcam #125306) according to the manufacturer’s protocol, or using a monoclonal anti-BrdU antibody (ThermoFisher #B35128) and a Mouse-on-Mouse kit (Vector Laboratories #BMK-2202) according to the IHC protocol outlined above. The fraction of BrdU-labelled crypt cells was calculated.

[3] = Tolerance: body mass, food consumption, clinical observations
Experimental: Medicilon Preclinical Research (Shanghai) LCC performed the pharmacokinetic studies; in brief, ICR mice (n = 25) from Sion-British SIPPR/BK Lab Animal Ltd, Shanghai were fed 100 mg G007-LK/kg chow enriched diet ad libitum for 3 consecutive days, body mass and food consumption was measured daily.
The body mass of the G007-LK-treated mice and the amount of consumed chow was measured 5 days per week. […] The mice were treated with G007-LK for 9 days by oral gavage or 21 days with the enriched diet.
The tolerance of G007-LK treatment in the experimental mice used in this study was further evaluated by short-term oral gavage treatment daily for 9 days with 10 or 50 mg G007-LK/kg body mass (Fig. 1d). […] For long-term treatment, mice were fed G007-LK-enriched diets, 100 or 1000 mg G007-LK/kg chow for up to 3 weeks (Fig. 1f).

[4] = Pharmacokinetic analysis in plasma after G007-LK enriched chow; type: in vivo, ICR mice; conditions: for G007-LK Concentration in plasma, Mean: n=5; for Cmax: 0 h
Experimental: To address the pharmacokinetic properties of the tankyrase inhibitor G007-LK, ICR mice (n = 25) were treated for 3 days with a G007-LK-enriched diet, containing 100 mg G007-LK/kg chow. […] Pharmacokinetic parameters of G007-LK following administration of enriched diet for three consecutive days are listed in Table 1.

canonical WNT signalling = experiment: β-catenin IHC of duodenal crypt base cells; type: in vivo, mice; conditions: gavage 10 mg/kg n = 2 and 50 mg/kg n = 1
Experimental: as §1
To verify that the administered doses of the tankyrase inhibitor had the expected effect on canonical WNT signalling, we stained duodenal tissue sections with a β-catenin-specific antibody. Nuclear localisation of β-catenin implied active canonical WNT signalling in vehicle (n = 3), (Fig. 4a) and G007-LK-treated (gavage 10 mg/kg, n = 2 and 50 mg/kg, n = 1) mice (Fig. 4b).

[5] = 6 months, 158 mg/kg chow, high fat-based diet
[6] = ICR mice, 100 mg G007-LK/kg chow, 3 days
[7] = ICR mice, female, diet containing G007-LK 100 mg/kg chow 3 days, plasma

## CS(=O)(=O)c1ccc(-c2nnc(/C=C/c3nnc(-c4ccc(C#N)cc4)o3)n2-c2ccccc2Cl)nc1 [G007-LK]
[1]; [5]
  glucose metabolism: improved glucose tolerance and insulin sensitivity
  toxic effects: did not lead to visible toxic effects
[1]; intermediate and high doses, up to 100 mg/kg body mass once daily 14–20 days, i.p. or orally
  small intestine toxicity: partially reversible focal necrosis and inflammation in the small intestine
duodenum; 9 days gavage 10 or 50 mg/kg, 21 days enriched diet 100 or 1000 mg/kg chow
  gross morphology of the duodenum (crypts and villi), H&E: maintained
duodenum; distal duodenum and ileum
  crypt abscesses: occasional crypt abscesses were observed
  morphology of epithelial cell layer: did not induce major morphological changes
duodenum; duodenum
  distribution of Paneth cells in crypt base (Lysozyme IHC) vs control: equal distribution pattern
  distribution of enteroendocrine cells (Chromogranin A IHC) vs control: comparable distribution patterns
duodenum; duodenum, gavage 50 mg/kg
  number of PAS stained goblet cells vs vehicle: no significant difference
duodenum; proximal duodenum, gavage treated vs control
  crypt:villus ratios, crypt duplication rates or size, goblet cell number or size, crypts per villus base: no statistically significant (t test, p > 0.05) changes
[2]; 100 mg/kg chow 2 weeks, G007-LK-free diet 2 days before tamoxifen, tracing 7 days
  lineage tracing after stop of treatment (G007-LK-stop, reversibility): presence of lineage traced cells throughout the entire length of the villi
[2]; GFP IHC, G007-LK treated mice n = 10 (control 0.51)
  average ratio of crypts with GFP positive cells versus total counted crypts: 0.39
[2]; GFP IHC, n = 10 treated, p = 0.05
  reduction of ratio of crypts with GFP positive cells versus total counted crypts, compared with control: 23%
[2]; Lgr5-EGFP-CreERT2;R26R-tdTomato mice, 100 mg/kg chow 6 days, started 24–36 h after tamoxifen
  location of lineage traced cells when treatment starts after tamoxifen: lineage traced cells were detected in the middle of the duodenal villi
[2]; duodenum
  number of villi with traced cells vs control: significantly (t test, p < 0.05) reduced
[2]; image analysis, duodenum
  number of lineage traced cells vs control: significant (t test, p < 0.05) reduction
  volume of lineage traced cells vs control: significant (t test, p < 0.05) reduction
[2]; long-term, 100 mg/kg chow, duodenum
  lineage tracing from LGR5^+ stem cells: markedly reduced lineage tracing
Duodenal crypt cells; n = 3
  BrdU-labelled cells after daily BrdU for 7 days: BrdU-labelled cells were observed at the tips of the villi
Duodenal crypt cells; n = 7, BrdU 1 h (control 0.28), p < 0.05
  ratio of BrdU positive crypt cells: 0.14
[3]; [6]
  changes in body mass: minor, not statistically significant
  food consumption: stable day 2 and 3 of the G007-LK enriched chow administration period, but statistically significant lower (t test, p < 0.05) the first day
  macroscopic phenotypes: No obvious macroscopic abnormal phenotypes were observed
[3]; daily doses up to approximately 200 mg/kg body mass, gavage or enriched diet
  tolerability: well tolerated
[4]; 0 h after diet removal
  G007-LK Concentration in plasma, single animals G1-1 to G1-5: 773,96 ng/mL and 795,28 ng/mL and 756,04 ng/mL and 696,04 ng/mL and 791,2 ng/mL
  G007-LK Concentration in plasma, Mean: 762,5 ng/mL
[4]; 1 h after diet removal
  G007-LK Concentration in plasma, single animals G1-1 to G1-5: 676,41 ng/mL and 696,8 ng/mL and 608,34 ng/mL and 669,24 ng/mL and 689,94 ng/mL
  G007-LK Concentration in plasma, Mean: 668,15 ng/mL
[4]; 2 h after diet removal
  G007-LK Concentration in plasma, single animals G1-1 to G1-5: 639,46 ng/mL and 649,54 ng/mL and 610,19 ng/mL and 589,18 ng/mL and 567,65 ng/mL
  G007-LK Concentration in plasma, Mean: 611,2 ng/mL
[4]; 4 h after diet removal
  G007-LK Concentration in plasma, single animals G1-1 to G1-5: 335,27 ng/mL and 378,3 ng/mL and 216,65 ng/mL and 474,86 ng/mL and 316,33 ng/mL
  G007-LK Concentration in plasma, Mean: 344,28 ng/mL
[4]; 12 h after diet removal
  G007-LK Concentration in plasma, single animals G1-1 to G1-5: 52,75 ng/mL and 105,7 ng/mL and 112,65 ng/mL and 158,02 ng/mL and 111,12 ng/mL
  G007-LK Concentration in plasma, Mean: 108,05 ng/mL
[4]; ICR mice, diet containing G007-LK 100 mg/kg chow 3 days, plasma, read-out: Cmax
  Cmax: 1440 ± 80 nM
[4]; [7]
  AUC(0-t): 4119.80 ng·h/mL
  AUC(0-∞): 4770.32 ng·h/mL
  Cmax: 762.50 ng/mL
[4]; ICR mice, female, diet containing G007-LK 100 mg/kg chow ad libitum 3 days, plasma, non-compartmental
  t1/2: 4.17 h
[4]; enriched chow vs IV data of ref 26, calculated from AUC(0-t)
  F^a bioavailability: 22.22%
[4]; enriched chow vs IV data of ref 26, calculated from AUC(0-∞)
  F^b bioavailability: 20.69%
Canonical WNT signalling
  fraction of β-catenin-positive nuclei in crypt base cells vs control: significant (t test, p < 0.05) reduction
